How the values were obtained:
[1] = B. W. Horrom et al., J. Org. Chem., 72, 721 (1950); cited from earlier work
[2] = test system: Arg-vasopressin induced coronaric spasm in anesthetized Sprague Dawley rats; assay: antianginal activity in vivo, Arg-vasopressin-induced coronaric spasm (increase of the T-wave); conditions: for % Inhibition of the increase of the T-wave versus the controls: 3 mg/Kg per os, Arg-vasopressin i.v.; for ED50: Rattus norvegicus, iv, 4 increasing doses, Arg-vasopressin, read-out: ED50 (i.v.), dose yielding the 50% inhibition of the increase of the T-wave
Description: The antianginal activity in vivo was determined on anesthetized Sprague Dawley rats of weight 350-400 g, operating according to the method of M. Leitold et al., Arzeim. Forsch., 36, 1454, (1986). The test was carried out by intravenously administering the animals with one I.U/Kg, equivalent to […] of Arg-vasopressin, thus inducing a coronaric spasm that is reproducible and may be electrocardiographically monitored by an increase of the T-wave. The compounds of the invention were administered by gastric gavage at a dose of 3 mg/Kg one […] before the administration of Arg-vasopressin. The antianginal effect was expressed as the percentage inhibition of the increase of the T-wave versus the controls. Another group of animals were intravenously administered with 4 increasing doses of the compound of the invention to measure their ED50, i.e. the dose yielding the 50% inhibition of the increase of the T-wave.

[3] = test system: rabbit aorta strip contracted with noradrenaline; assay: rabbit aorta strip contracted with noradrenaline (in vitro vasorelaxing activity); format: cell-based; conditions: Oryctolagus cuniculus, concentration causing 50% inhibition of the contraction of the rabbit aorta strip, read-out: Vasodilative activity in vitro IC50
Description: The in vitro vasorelaxing activity was determined by the test of the rabbit aorta strip contracted with noradrenaline. The test was carried out according to the method described by K. Murakami et al., Eur. J. Pharmacol., 141, 195 (1987).
The IC50 values i.e., the concentrations of active substances, causing a 50% inhibition of the contraction of the rabbit strip, were determined.

SMILES | analgesic activity [1] | % Inhibition of the increase of the T-wave versus the controls [2] | ED50 [2] | IC50 [3]
O=C1NC(c2ccccc2)Oc2ccccc21 (stereo not shown) [2,3-dihydro-2-phenyl-4H-1,3-benzoxazin-4-one] | endowed with analgesic activity | – | – | –
O=C1c2ccccc2OCN1CCO[N+](=O)[O-] [Example 1, 2,3-Dihydro-3-(2'-nitrooxyethyl)-4H-1,3-benzoxazin-4-one] | – | 55% | 0.0013 mg/kg | 0.094 µM
Cc1ccc2c(c1)C(=O)N(CCO[N+](=O)[O-])CO2 [Example 2, 2,3-Dihydro-6-methyl-3-(2'-nitrooxyethyl)-4H-1,3-benzoxazin-4-one] | – | – | 0.0063 mg/kg | 0.0054 µM
O=C1c2ccc(Cl)cc2OCN1CCO[N+](=O)[O-] [Example 3, 7-Chloro-2,3-dihydro-3-(2'-nitrooxyethyl)-4H-1,3-benzoxazin-4-one] | – | 31% | 0.011 mg/kg | 0.0063 µM
Cc1ccc2c(c1)OCN(CCO[N+](=O)[O-])C2=O [Example 4, 2,3-Dihydro-7-methyl-3-(2'-nitrooxyethyl)-4H-1,3-benzoxazin-4-one] | – | 31% | 0.012 mg/kg | 0.075 µM
O=C1c2ccccc2OCN1CCCCCO[N+](=O)[O-] [Example 8, 2,3-Dihydro-3-(5'-nitrooxypentyl)-4H-1,3-benzoxazin-4-one] | – | – | 0.058 mg/kg | 0.019 µM
COc1ccc2c(c1)OCN(CCO[N+](=O)[O-])C2=O [Example 9, 2,3-Dihydro-7-methoxy-3-(2'-nitrooxyethyl)-4H-1,3-benzoxazin-4-one] | – | – | – | 0.014 µM
O=C1c2ccccc2SCN1CCO[N+](=O)[O-] [Example 10, 3(2'-nitrooxyethyl)-2,3-dihydro-4H-1,3-benzothiazin-4-one] | – | – | – | 0.017 µM

Source: US5189034A, “Benzoxazinone and benzothiazinone derivatives endowed with cardiovascular activity” (Italfarmaco S.P.A., priority 1990, dated 1993)
